Measurements reported in article PMC3943701 (Biochimica et biophysica acta, 2013).
Entries after “also recorded” stand apart in the source; their conditions may differ. Read-outs that look alike come from different tables or passages of the source.

Tests used:
influenza A/M2 protein = conditions: sensitive circulating influenza strains; ref [2], [3]; cited from earlier work
M2 His37 = conditions: addition of amantadine; ref [17]; cited from earlier work
[1] = test system: M2(19–62) thiazolylalanine construct; format: biochemical, influenza A virus (A/Udorn/72); conditions: pH 2.4
[2] = test system: M2(19–62) wild type construct; format: biochemical, influenza A virus (A/Udorn/72); conditions: liposomes pre-mixed with amantadine HCl 3 h, 18°C
[3] = in solution, no reference given, cited from earlier work

| Structure (SMILES) | inhibition of M2 proton transport (in words) (influenza A/M2 protein) | effect on His37 ring flip, protonation and deprotonation (in words) (M2 His37) | amantadine inhibition of currents (in words) [1] | inhibitory effect of amantadine on flux (in words) ([2]; bathing buffer pH 2.4) | amantadine sensitivity of flux (in words) ([2]; bathing buffer pH 7.4 and 4.9) | solution pKa of side chain [3] | solution pKa of side chain ([3]; listed as imidazole) |
| --- | --- | --- | --- | --- | --- | --- | --- |
| NC12CC3CC(CC(C3)C1)C2 [amantadine] | inhibited | significantly inhibited | robust amantadine inhibition | No inhibitory effect; also recorded: begins to be lost | amantadine-sensitive | – | – |
| N[C@@H](Cc1c[nH]cn1)C(=O)O [histidine] | – | – | – | – | – | 6.5 | ~ 6.5 |
| CC(N)C12CC3CC(CC(C3)C1)C2 (centres unmarked) [rimantadine] | inhibited | – | – | – | – | – | – |
